Bridge positions count the residues as written; N and C are the ends. Peptide text beside a SMILES is read from it.
Legend:
[1] = target: T1, erbB3-erbB1 heteromerization (Homo sapiens, UniProt P00533); test: SPR inhibition of HRGβ1-induced binding of ErbB3 to immobilized ErbB1; conditions: peptide 10 μm, ErbB3 300 nm, HRGβ1 5 μM
T1 construct: the ectodomains of erbB receptors were immobilized on the surface chip; erbB1 and erbB3: gift of Dr. Mark A. Lemmon
Experimental: (§1) The effect of cysteine-knot mimetics on receptor self-associations, was examined using a Biacore assay in which the ectodomains of erbB receptors were immobilized on the surface chip and the ectodomain of erbB3 was injected at 300 nM concentrations either alone or in the presence of 5 μM hereglunin HRGβ1.
(§2) The effect of the erbB peptides on heregulin-induced receptor self-associations was studied by preinjecting them at 10 μM followed by injection of erbB3-HRGβ1 (FIG. 4; 1B, 2B, 3B).
(§3) Binding experiments were performed with the surface plasmon resonance based biosensor instrument Biacore 3000 (Biacore AB, Uppsala, Sweden), at 25° C. […] (erbB2) and Dr. Mark A. Lemmon, Department of Biochemistry and Biophysics, University of Pennsylvania School of Medicine (erbB1 and erbB3). Immobilization of the erbB receptors in the sensor surface was performed following the standard amine coupling procedure according to manufacturer's instructions. Briefly, 35 μl of a solution containing 0.2 M N-ethyl-N′-(dimethylaminopropyl) carbodiimide (EDC) and 0.05 M N-hydroxysuccinimide (NHS), were injected at a flow rate of 5 μl/min to activate carboxyl groups on the sensor chip surface. Receptors (40 ng/ml in 10 mM NaOAc buffer, pH 5.0) were flowed over the chip surface at a flow rate of 20 μl/min until the desired level bound protein was reached. Unreacted protein was washed out and unreacted activated groups were blocked by the injection of 35 μl of 1 M ethanolamine at 5 μl/min. […] A reference surface was generated simultaneously under the same conditions but without receptor injection and used as a blank to correct for instrument and buffer artifacts. Peptides were injected at variable concentrations at 20 μl/min flow rate and binding to the receptors immobilized on the chip was monitored in real time. Each sensorgram consists of an association phase (first 240 s), reflecting binding of the injected peptide to the receptor, followed by a dissociation phase (300 s), during which the running buffer is passed over the chip and the bound peptide is being washed off the receptor surface.

ErbB3 = target: T2, ErbB3 (Homo sapiens, UniProt P21860); test: Surface plasmon resonance (Biacore) binding to immobilized ErbB3 extracellular domain; conditions: immobilized extracellular domain, surface plasmon resonance; read-out: KD (μM) ErbB3
T2 construct: gift of Dr. Mark A. Lemmon, University of Pennsylvania School of Medicine
Experimental: (§4) The designed erbB peptides were tested for binding to erbB receptors using surface plasmon resonance (Biacore) technology (described supra) using soluble erbB-1 and erbB-3. The response was plotted in real time in the form of sensorgram curves.
as §3

ErbB1 = target: T3, ErbB1 (Homo sapiens, UniProt P00533); test: Surface plasmon resonance (Biacore) binding to immobilized ErbB1 extracellular domain; conditions: immobilized extracellular domain, surface plasmon resonance; read-out: KD (μM) ErbB1
T3 construct: gift of Dr. Mark A. Lemmon, University of Pennsylvania School of Medicine
Experimental: as §4, §3

[2] = target: T4, erbB3-erbB2 heteromerization (Homo sapiens, UniProt P04626); test: SPR inhibition of HRGβ1-induced binding of ErbB3 to immobilized ErbB2; conditions: peptide 10 μm, ErbB3 300 nm, HRGβ1 5 μM
T4 construct: the ectodomains of erbB receptors were immobilized on the surface chip; erbB2: Dr. Che Law, Xcyte Therapeutics; erbB3: Dr. Mark A. Lemmon
Experimental: as §1, §2, §3

ErbB2 = target: T5, ErbB2 (Homo sapiens, UniProt P04626); test: Surface plasmon resonance (Biacore) binding to immobilized ErbB2 extracellular domain; conditions: immobilized extracellular domain, surface plasmon resonance; read-out: KD (μM) ErbB2
T5 construct: provided by Dr. Che Law, Xcyte Therapeutics, Seattle
Experimental: as §4, with “curves. Dissociation constants (Kd) were determined as described (Park, et al. 2000, Nat. Biotechnol. 18:194-198).” for “curves.”
A sensorgram for binding of B2-S22-APE peptide to erbB receptors immobilized on the sensor chip was performed.
as §3

[3] = target: T6, erbB2-erbB4 receptor heteromerization in the 32D-E2/E4 cells (Homo sapiens, UniProt P04626); test: Chemical cross-linking and immunoblotting of heregulin-induced receptor dimerization in 32D-E2/E4 cells; format: cell-based; conditions: dose-dependent, FIG. 5B, read-out: apparent IC50 of inhibition of receptor dimerization
T6 construct: dimerization of native full-length ErbB receptors was studied using the 32D cell lines transfected with different erbB receptors; host or cells: 32D cells (32D-E2/E4)
Experimental: Effect of the ErbB peptides on biochemically defined dimerization of native full-length ErbB receptors was studied using the 32D cell lines transfected with different erbB receptors. 32D-E1 cells were transfected with erbB1; 32D-E2/E3 with erbB2 and erbB3; and 32D-E2/E4 with erbB2 and erbB4.
32D cell transfectants with ErbB receptors (gift from Dr. Jacalyn H. Pierce, National Cancer Institute) were grown in RPMI 1640, 10% FBS and 5% WEHI medium (GenoQuest, Interlukin-3 supplement) and respective antibiotics, i.e. 32D-E1 (gptr), 32D-E2/E3 (neor/gptr) and 32D-E2/E4 (neor/gptr) (29). The WEHI medium was withdrawn and cells were pre-incubated with ErbB peptides for 2 hours at 37° C. before adding 10 μg/ml EGF (for 32D-E1, Collaborative Biomedical Products) or 10 μg/ml HRG 1 (for 32D-E2/E3 or 32D E2/E4, R&D Systems) and further incubated at 37° C. for 24-48 hours. The cell viability was detected with propidium iodide staining followed by flow cytometry quantification. For the cross-linking analysis, approximately 2×10^6 cells were suspended in RPMI 1640 medium containing 0.1% BSA and 10 mM HEPES, and pre-incubated with ErbB peptides for 2 hours at 37° C. before adding 10 μg/ml EGF or 10 μg/ml Heregulin-β1 EGF domain and further incubated at 37° C. for 10-15 minutes. Cells were rinsed with PBS and incubated in 2 mM BS^3/PBS at 4° C. for 45 minutes. […]

[4] = target: T7, erbB3-erbB3 homomerization (Homo sapiens, UniProt P21860); test: SPR inhibition of HRGβ1-induced binding of ErbB3 to immobilized ErbB3; conditions: peptide 10 μm, ErbB3 300 nm, HRGβ1 5 μM
T7 construct: the ectodomains of erbB receptors were immobilized on the surface chip; erbB3: gift of Dr. Mark A. Lemmon
Experimental: as §1, §2, §3

T6 sequence (P04626 23-1255, one chain of several): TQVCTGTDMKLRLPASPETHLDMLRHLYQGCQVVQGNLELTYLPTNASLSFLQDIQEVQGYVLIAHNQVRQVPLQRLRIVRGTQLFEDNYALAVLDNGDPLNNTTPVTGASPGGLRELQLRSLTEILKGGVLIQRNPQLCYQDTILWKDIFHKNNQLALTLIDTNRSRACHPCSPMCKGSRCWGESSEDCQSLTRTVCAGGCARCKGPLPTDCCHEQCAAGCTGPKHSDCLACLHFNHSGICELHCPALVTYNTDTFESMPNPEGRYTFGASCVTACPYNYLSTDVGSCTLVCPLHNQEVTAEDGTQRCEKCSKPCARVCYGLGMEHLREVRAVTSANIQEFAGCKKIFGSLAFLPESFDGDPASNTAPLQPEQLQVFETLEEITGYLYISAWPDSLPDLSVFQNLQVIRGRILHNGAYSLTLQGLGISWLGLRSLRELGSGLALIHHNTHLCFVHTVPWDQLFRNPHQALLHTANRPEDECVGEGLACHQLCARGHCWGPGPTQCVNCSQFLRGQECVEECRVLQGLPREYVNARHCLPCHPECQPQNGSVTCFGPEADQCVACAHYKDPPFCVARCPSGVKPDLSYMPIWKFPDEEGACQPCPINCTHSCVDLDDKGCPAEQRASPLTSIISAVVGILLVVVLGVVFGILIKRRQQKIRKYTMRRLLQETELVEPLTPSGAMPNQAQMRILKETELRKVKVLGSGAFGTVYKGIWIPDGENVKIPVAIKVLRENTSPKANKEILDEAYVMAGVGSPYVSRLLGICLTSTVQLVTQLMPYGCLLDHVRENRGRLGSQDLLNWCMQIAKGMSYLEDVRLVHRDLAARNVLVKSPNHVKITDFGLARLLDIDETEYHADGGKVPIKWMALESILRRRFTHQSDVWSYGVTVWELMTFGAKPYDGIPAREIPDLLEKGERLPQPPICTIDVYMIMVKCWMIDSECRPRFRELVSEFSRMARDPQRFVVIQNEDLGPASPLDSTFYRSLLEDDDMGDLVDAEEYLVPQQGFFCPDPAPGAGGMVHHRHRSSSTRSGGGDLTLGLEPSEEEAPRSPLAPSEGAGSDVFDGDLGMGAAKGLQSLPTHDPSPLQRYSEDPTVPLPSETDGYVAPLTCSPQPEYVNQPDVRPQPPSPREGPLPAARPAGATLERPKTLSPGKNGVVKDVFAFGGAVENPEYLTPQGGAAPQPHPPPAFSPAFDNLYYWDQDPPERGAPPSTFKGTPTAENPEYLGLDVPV
T1 sequence (P00533 25-645 limits assumed, one chain of several): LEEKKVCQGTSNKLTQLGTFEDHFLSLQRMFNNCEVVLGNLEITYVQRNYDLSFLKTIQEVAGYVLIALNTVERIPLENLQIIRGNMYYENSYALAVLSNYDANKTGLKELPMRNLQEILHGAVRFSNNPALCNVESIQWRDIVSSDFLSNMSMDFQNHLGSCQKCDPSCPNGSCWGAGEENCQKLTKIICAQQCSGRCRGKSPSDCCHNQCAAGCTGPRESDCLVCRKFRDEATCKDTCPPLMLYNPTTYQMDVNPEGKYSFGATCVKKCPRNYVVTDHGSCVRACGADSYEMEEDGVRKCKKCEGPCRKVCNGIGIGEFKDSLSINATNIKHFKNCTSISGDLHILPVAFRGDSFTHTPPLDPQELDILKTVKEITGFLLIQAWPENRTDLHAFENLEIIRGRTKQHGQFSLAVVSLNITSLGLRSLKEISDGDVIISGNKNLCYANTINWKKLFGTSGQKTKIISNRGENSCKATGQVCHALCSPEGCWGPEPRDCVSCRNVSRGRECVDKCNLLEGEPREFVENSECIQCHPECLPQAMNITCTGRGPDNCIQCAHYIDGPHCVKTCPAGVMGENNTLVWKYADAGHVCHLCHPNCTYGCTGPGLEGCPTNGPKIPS
T3 sequence (P00533 25-645 limits assumed): as the sequence (P00533 25-645 limits assumed, one chain of several) above
T7 sequence (P21860 20-643 limits assumed): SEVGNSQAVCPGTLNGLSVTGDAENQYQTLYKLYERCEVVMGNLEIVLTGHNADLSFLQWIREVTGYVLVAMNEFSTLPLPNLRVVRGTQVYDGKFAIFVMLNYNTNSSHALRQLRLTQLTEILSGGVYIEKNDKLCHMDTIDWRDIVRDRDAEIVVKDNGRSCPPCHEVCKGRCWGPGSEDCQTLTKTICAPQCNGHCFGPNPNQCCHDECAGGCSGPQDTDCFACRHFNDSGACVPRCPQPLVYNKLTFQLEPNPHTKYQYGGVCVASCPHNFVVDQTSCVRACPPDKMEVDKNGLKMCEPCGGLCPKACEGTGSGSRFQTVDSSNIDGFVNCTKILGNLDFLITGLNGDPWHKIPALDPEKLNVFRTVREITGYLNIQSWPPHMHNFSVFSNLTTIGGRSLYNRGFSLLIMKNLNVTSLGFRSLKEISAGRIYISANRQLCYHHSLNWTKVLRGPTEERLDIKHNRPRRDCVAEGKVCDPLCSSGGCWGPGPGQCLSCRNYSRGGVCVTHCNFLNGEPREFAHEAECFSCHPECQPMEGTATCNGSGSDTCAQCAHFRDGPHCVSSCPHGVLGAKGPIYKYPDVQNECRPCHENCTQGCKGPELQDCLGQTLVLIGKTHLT
T2 sequence (P21860 20-643 limits assumed): as above
T4 sequence (P04626 23-652 limits assumed, one chain of several): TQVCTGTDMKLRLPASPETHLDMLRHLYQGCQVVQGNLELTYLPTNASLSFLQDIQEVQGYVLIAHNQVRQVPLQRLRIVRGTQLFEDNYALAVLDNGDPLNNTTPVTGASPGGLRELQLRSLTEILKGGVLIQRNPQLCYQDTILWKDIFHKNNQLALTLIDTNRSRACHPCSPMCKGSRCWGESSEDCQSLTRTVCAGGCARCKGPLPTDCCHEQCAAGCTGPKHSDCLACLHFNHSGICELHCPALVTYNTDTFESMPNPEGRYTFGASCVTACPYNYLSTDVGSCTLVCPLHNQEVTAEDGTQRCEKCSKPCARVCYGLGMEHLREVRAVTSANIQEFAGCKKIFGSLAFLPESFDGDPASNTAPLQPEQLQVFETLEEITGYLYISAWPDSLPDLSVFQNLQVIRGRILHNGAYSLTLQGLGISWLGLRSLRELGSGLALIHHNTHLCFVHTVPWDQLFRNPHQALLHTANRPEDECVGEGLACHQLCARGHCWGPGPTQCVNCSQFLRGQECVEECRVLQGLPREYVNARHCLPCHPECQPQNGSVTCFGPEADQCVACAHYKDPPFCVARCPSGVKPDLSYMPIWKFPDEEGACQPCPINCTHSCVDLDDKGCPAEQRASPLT
T5 sequence (P04626 23-652 limits assumed): as the sequence (P04626 23-652 limits assumed, one chain of several) above

With `C[C@@H]1NC(=O)CNC(=O)[C@H](CCC(=O)O)NC(=O)[C@H](CCC(=O)O)NC(=O)[C@H](CC(=O)O)NC(=O)[C@@H]2CCCN2C(=O)[C@H](Cc2ccccc2)NC(=O)[C@@H](NC(=O)[C@@H](N)Cc2ccc(O)cc2)CSSC[C@@H](C(=O)N[C@@H](Cc2ccc(O)cc2)C(N)=O)NC1=O` [B2-S22-AFA, YCFPDEEGACY] (H-YCFPDEEGACY-NH2; disulfide 2-10) the “Percent Inhibition ErbB1” value [1] was 78.4%, the Kd (ErbB3) was 0.429 µM and the Kd (ErbB1) was 0.407 µM. For the same compound, the “Percent Inhibition ErbB2” value [2] was 82.5%, the Kd (ErbB2) was 0.302 µM and the IC50 [3] was 0.8 µM. The “Percent Inhibition ErbB3” value [4] was 61.7%.

From patent US8962793B2, “ErbB interface peptidomimetics and methods of use thereof” (The Trustees of the University of Pennsylvania, priority 2001, dated 2015)
